According to ChEMBL document CHEMBL1126118, “Synthesis and biological activity of ketomethylene pseudopeptide analogues as thrombin inhibitors” (J Med Chem, 1992):

Legend:
[1] = molecular target: Prothrombin (Homo sapiens, UniProt P00734); assay: In vitro inhibitory activity against thrombin
[2] = organism: Homo sapiens; assay: Concentration required to double the activated partial thromboplastin time of human plasma was measured; format: functional
[3] = organism: Homo sapiens; assay: Concentration required to double the human alpha-thrombin induced clotting time of human plasma; format: functional
[4] = molecular target: Urokinase-type plasminogen activator (Homo sapiens, UniProt P00749); assay: In vitro inhibitory activity against Urokinase-type plasminogen activator
[5] = molecular target: Coagulation factor X (Homo sapiens, UniProt P00742); assay: In vitro inhibitory activity against Coagulation factor X
Sequence of Coagulation factor X (P00742 41-179 limits assumed): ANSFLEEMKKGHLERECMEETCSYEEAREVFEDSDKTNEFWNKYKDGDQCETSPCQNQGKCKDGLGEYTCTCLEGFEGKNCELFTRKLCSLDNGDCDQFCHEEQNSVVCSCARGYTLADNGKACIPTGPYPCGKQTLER
Sequence of Coagulation factor X (P00742 235-488 limits assumed): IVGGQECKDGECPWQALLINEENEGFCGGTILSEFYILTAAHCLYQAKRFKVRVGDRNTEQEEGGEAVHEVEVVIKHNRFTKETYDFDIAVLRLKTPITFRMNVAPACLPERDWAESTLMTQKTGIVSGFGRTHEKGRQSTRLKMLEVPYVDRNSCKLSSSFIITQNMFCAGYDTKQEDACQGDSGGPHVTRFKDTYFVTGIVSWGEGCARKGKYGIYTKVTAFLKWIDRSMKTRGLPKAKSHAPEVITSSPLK

[6] = molecular target: Plasminogen (Rattus norvegicus, UniProt Q01177); assay: In vitro inhibitory activity against plasmin
Sequence of Plasminogen (Q01177 97-581 limits assumed): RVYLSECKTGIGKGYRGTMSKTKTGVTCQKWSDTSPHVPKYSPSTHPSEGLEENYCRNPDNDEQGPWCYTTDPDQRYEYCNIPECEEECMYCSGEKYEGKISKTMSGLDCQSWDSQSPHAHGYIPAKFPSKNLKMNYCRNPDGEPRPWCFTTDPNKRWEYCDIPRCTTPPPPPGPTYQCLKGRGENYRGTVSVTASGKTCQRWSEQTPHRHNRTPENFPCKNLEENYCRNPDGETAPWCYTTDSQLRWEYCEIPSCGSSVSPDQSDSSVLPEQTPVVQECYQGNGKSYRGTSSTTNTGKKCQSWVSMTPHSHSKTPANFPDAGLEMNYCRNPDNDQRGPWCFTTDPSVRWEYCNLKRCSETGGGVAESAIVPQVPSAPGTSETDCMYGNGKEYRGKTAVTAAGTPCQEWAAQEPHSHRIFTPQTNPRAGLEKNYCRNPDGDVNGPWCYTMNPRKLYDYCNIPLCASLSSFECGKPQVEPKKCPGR
Sequence of Plasminogen (Q01177 582-812 limits assumed): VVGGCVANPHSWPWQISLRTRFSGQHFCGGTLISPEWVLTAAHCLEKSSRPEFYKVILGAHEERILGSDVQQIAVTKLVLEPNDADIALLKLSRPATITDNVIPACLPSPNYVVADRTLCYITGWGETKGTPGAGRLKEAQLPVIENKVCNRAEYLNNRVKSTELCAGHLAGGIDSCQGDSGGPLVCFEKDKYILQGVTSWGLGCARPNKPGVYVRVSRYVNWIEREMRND

[7] = molecular target: Kallikrein-1 (Homo sapiens, UniProt P06870); assay: In vitro inhibitory activity against Kallikrein
Sequence of Kallikrein-1 (P06870 whole entry): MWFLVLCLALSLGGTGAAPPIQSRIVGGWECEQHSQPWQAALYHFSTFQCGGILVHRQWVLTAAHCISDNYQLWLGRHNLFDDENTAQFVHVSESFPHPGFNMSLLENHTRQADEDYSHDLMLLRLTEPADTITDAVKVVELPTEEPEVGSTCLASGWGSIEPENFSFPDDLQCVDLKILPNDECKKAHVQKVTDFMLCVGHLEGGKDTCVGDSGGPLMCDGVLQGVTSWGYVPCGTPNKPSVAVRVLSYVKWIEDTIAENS

SMILES | Ki [1] | Ki [4] | Ki [5] | Ki [6] | Ki [7] | APTT [2] | TT [3]
NC(N)=NCCCC(NC(=O)[C@@H]1CCCN1C(=O)[C@H](N)Cc1ccc2ccccc2c1)C(=O)CCC(=O)N1CCCCC1 (stereo partly specified) | 2.28 µM | – | – | – | – | – | –
NC(N)=NCCCC(NC(=O)[C@@H]1CCCN1C(=O)C(N)C(c1ccccc1)c1ccccc1)C(=O)CCC(=O)N1CCCCC1.O=C(O)C(F)(F)F.O=C(O)C(F)(F)F (stereo partly specified) | 0.6 µM | – | – | – | – | 45 µM | –
NC(N)=NCCCC(NC(=O)[C@@H]1CCCN1C(=O)[C@H](N)Cc1ccccc1)C(=O)CCC(=O)N1CCCCC1 (stereo partly specified) | – | – | – | – | – | – | 4.9 µM

More lines, main results first:

Ki [1] | Ki [4] | Ki [5] | Ki [6] | Ki [7] | SMILES | APTT [2] | TT [3]
1.7 µM | – | – | – | – | NC(N)=NCCCC(NC(=O)[C@@H]1CCCN1C(=O)[C@@H](N)C(c1ccccc1)c1ccccc1)C(=O)CCC(=O)N1CCCCC1.O=C(O)C(F)(F)F.O=C(O)C(F)(F)F (stereo partly specified) | 100 µM | 7.5 µM
11.6 µM | – | – | – | – | NC(N)=NCCCC(NC(=O)[C@@H]1CCCN1C(=O)C(N)Cc1ccc2ccccc2c1)C(=O)CCC(=O)N1CCCCC1.O=C(O)C(F)(F)F.O=C(O)C(F)(F)F (stereo partly specified) | – | 90 µM
0.2 µM | 494 µM | 149 µM | 157 µM | 199 µM | NC(N)=NCCCC(NC(=O)[C@@H]1CCCN1C(=O)[C@H](N)C(c1ccccc1)c1ccccc1)C(=O)CCC(=O)N1CCCCC1.O=C(O)C(F)(F)F.O=C(O)C(F)(F)F (stereo partly specified) | 8 µM | 0.65 µM
